Results published in patent US20100261767A1, “OXADIAZOLE DERIVATIVES FOR USE AS S1P1 AGONISTS IN THE TREATMENT OF AUTOIMMUNE AND INFLAMMATORY DISORDERS” (priority 2007, published 2010).
pEC50: −log10 of the molar value. Structures can show the parent of a compound that is named as a salt.

Columns and labels:
[1] = molecular target: T1, human S1P1 receptor (Homo sapiens, UniProt P21453); assay: S1P1 GTPγS Assay; assay type: biochemical; conditions: human S1P1 rat hepatoma membranes, agonist
T1 construct: expressed in transfected cells; membranes
Procedure: Membrane Preparation for S1P1 GTPγS Assay
For membrane preparations all steps were performed at 4° C. Rat hepatoma cells stably expressing the human S1P1 receptor or Rat Basophilic Leukaemia cells (RBL) stably expressing human S1P3 receptor were grown to 80% confluency before being harvested into 10 ml Phospho-Buffered Saline (PBS) and centrifuged at 1200 rpm for 5 minutes. After removal of the supernatant, the pellet was re-suspended and cells were homogenised within a glass Waring blender for 2 bursts of 15 secs in 200 mls of buffer (50 mM HEPES, 1 mM leupeptin, 25 μg/ml bacitracin, 1 mM EDTA, 1 mM PMSF, 2 μM pepstatin A). The blender was plunged into ice for 5 mins after the first burst and 10-40 mins after the final burst to allow foam to dissipate. […]
After 30 minutes pre-coupling on ice the bead and membrane suspension was dispensed into a white Greiner polypropylene LV384-well plate (5 μl/well), containing 0.1 μl of the compound. […] The final assay cocktail (10.1 μl) was then centrifuged at 1000 rpm for 5 minutes then read immediately on a Viewlux reader. […]
(§1) After 30 minutes precoupling on ice, the bead and membrane suspension was dispensed into white Greiner polypropylene LV 384-well plates (5 μl/well), containing 0.1 μl of compound. […] The final assay cocktail (10.1 μl) was then sealed, spun on a centrifuge, then read immediately on a Viewlux instrument.

[2] = molecular target: T2, human S1P3 receptor (Homo sapiens, UniProt Q99500); assay: S1P3 GTPγS Assay; assay type: biochemical; conditions: S1P3 RBL-2H3 membranes, agonist
T2 construct: expressed in transfected cells; membranes
Procedure: For membrane preparations all steps were performed at 4° C. Rat hepatoma cells stably expressing the human S1P1 receptor or Rat Basophilic Leukaemia cells (RBL) stably expressing human S1P3 receptor were grown to 80% confluency before being harvested into 10 ml Phospho-Buffered Saline (PBS) and centrifuged at 1200 rpm for 5 minutes. After removal of the supernatant, the pellet was re-suspended and cells were homogenised within a glass Waring blender for 2 bursts of 15 secs in 200 mls of buffer (50 mM HEPES, 1 mM leupeptin, 25 μg/ml bacitracin, 1 mM EDTA, 1 mM PMSF, 2 μM pepstatin A). The blender was plunged into ice for 5 mins after the first burst and 10-40 mins after the final burst to allow foam to dissipate. The material was then spun at 500 g for 20 mins and the supernatant spun for 36 mins at 48,000 g. The pellet was resuspended in the same buffer as above but without PMSF and pepstatin A. The material was then forced through a 0.6 mm needle, made up to the required volume, (usually ×4 the volume of the original cell pellet), aliquoted and stored frozen at −80° C.
S1P3 membranes from rat basophilic leukaemia cells (RBL-2H3) (1.5 μg/well) were adhered to WGA-coated SPA beads (0.125 mg/well) in assay buffer (HEPES 20 mM, MgCl2 3 mM, NaCl 100 mM and pH adjusted to 7.4 using KOH 5M), GDP 10 μM FAC and saponin 90 μg/ml FAC was also added).
After 30 minutes pre-coupling on ice the bead and membrane suspension was dispensed into a white Greiner polypropylene LV384-well plate (5 μl/well), containing 0.1 μl of the compound. 5 μl/well [^35S]-GTPγS (0.5 nM final radioligand conc) made up in assay buffer was then added to agonist plates. The final assay cocktail (10.1 μl) was centrifuged at 1000 rpm for 5 minutes then read immediately on a Viewlux reader. […]
as §1

T2 sequence (Q99500 whole entry): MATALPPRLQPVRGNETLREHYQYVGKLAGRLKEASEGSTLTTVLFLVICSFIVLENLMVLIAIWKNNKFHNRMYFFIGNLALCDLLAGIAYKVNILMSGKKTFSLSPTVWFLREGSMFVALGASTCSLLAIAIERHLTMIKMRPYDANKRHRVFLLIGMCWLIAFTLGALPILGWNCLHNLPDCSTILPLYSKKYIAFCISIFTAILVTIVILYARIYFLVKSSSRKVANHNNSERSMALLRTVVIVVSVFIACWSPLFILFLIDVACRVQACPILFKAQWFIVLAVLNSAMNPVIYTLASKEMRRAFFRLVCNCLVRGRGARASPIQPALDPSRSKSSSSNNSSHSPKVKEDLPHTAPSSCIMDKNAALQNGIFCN
T1 sequence (P21453 whole entry): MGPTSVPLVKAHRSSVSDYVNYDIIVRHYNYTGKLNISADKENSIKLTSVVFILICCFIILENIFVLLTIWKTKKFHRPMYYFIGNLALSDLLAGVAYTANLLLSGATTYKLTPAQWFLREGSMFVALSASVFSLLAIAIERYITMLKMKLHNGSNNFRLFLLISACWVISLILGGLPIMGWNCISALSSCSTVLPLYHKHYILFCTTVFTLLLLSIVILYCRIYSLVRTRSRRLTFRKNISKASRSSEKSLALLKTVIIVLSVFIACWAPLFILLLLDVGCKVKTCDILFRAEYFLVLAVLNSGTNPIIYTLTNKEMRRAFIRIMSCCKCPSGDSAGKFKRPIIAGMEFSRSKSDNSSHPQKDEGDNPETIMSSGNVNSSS

| pEC50 [1] | pEC50 [2] | Compound |
| --- | --- | --- |
| > 8.00 | < 5.00 | CC(C)Oc1ccc(-c2nc(-c3cccc4c3CNC4)no2)cc1C#N [Example 1, 5-[3-(2,3-Dihydro-1H-isoindol-4-yl)-1,2,4-oxadiazol-5-yl]-2-[(1-methylethyl)oxy]benzonitrile hydrochloride] |
| > 8.00 | < 5.00 | CC(C)Oc1ccc(-c2nc(-c3cccc4c3CNC4)no2)cc1Cl [Example 2, 4-(5-{3-Chloro-4-[(1-methylethyl)oxy]phenyl}-1,2,4-oxadiazol-3-yl)-2,3-dihydro-1H-isoindole] |
|  | < 5.00 | CC(C)Oc1ccc(-c2nc(-c3cccc4c3CN(CCCC(=O)O)C4)no2)cc1C#N [Example 5, 4-[4-(5-{3-cyano-4-[(1-methylethyl)oxy]phenyl}-1,2,4-oxadiazol-3-yl)-1,3-dihydro-2H-isoindol-2-yl]butanoic acid] |
